One assay concerns breast carcinoma 4T1. In words: Example 11: humanized CD274 cell subcutaneous xenograft tumor model of breast carcinoma 4T1 in BALBc mice. Particulars: intratumor injection, 1 mg/kg each. It counts as in vivo. As for the experimental part: (§1) Tumor cells were cultured and passaged, cells were collected at the logarithmic phase, and formulated into a concentration of (1.0×10^7) per milliliter of cell suspension with 0.1 ml (with a cell number of 1.0×10^6) being injected into the right flank of the mice, the tumor grew to a diameter of about 5 mm within about 10 days, and the model was successfully established, they were randomly divided into 8 groups with 8 mice per group.
(§2) Trend of changes in body weight and tumor volume of mice, survival rate of mice, and inhibitory rate of anatomical tumor weight.
(§3) Drug interaction coefficient: CDI(CI)=AB/A*B. AB is the ratio of the combination group of two drugs to the control group, as calculated based on the anatomical tumor weight. A or B is the ratio of single drug group to control group.
After successfully establishing a humanized CD274 cell subcutaneous xenograft tumor model of breast carcinoma 4T1 in BALBc mice, they were randomly grouped with 6-8 mice per group and administered once every two days, a total of 3 times.
Background: A xenograft is tissue or cells of one species grown in another, often human tumour cells in immunodeficient mice.

In assay [1] the test system is colorectal carcinoma MC38. The assay is described as follows: Example 7.2.2: MC38 subcutaneous xenograft, PD-L1 inhibitor Durvalumab and 2′,3′-cGAMP. It counts as in vivo, mouse. Particulars: intratumor injection, 1 mg/kg each, every other day, 3 times. As for the experimental part: as §1, §2, §3
(§4) After successfully establishing a subcutaneous xenograft tumor model of colorectal carcinoma MC38 in mice, they were randomly grouped with 6-8 mice per group and administered once every two days, a total of 3 times.

The test system of assay [2] is colorectal carcinoma MC38. In words: Example 7.2.1: MC38 subcutaneous xenograft, marketed PD-1 inhibitors and 2′,3′-cGAMP. Type of assay: in vivo, mouse. Particulars: intratumor injection; PD-1 antibody 10 mg/kg, 2′,3′-cGAMP 1 mg/kg; every other day, 3 times. Here is the method: as §1, §2, §3, §4
In assay [3] the test system is colorectal carcinoma MC38. In words: Example 2: humanized PD-1 subcutaneous xenograft tumor model of colorectal carcinoma MC38, RB0004 and 2′,3′-cGAMP. It counts as in vivo, mouse. Particulars: 2′,3′-cGAMP 3 mg/kg i.t.; RB0004 10 mg/kg i.p.; every other day. As for the experimental part:
as §1, §2
After successfully establishing a humanized PD-1 subcutaneous xenograft tumor model of colorectal carcinoma MC38 in mice, they were randomly grouped with 8 mice per group and administered once every two days.

In another assay the test system is melanoma B16. In words: Example 12: humanized PD-1 subcutaneous xenograft tumor model of melanoma B16. The following applies: intratumor injection, RB0004 10 mg/kg, 2′,3′-cGAMP 0.1 mg/kg; for TGI %: day 7. Type of assay: in vivo, mouse. Here is the method:
as §1
After successfully establishing a humanized PD-1 subcutaneous xenograft tumor model of melanoma B16 in mice, they were randomly grouped with 6-8 mice per group and administered once every two days, a total of 3 times.

The subject of assay [4] is colorectal carcinoma MC38. In words: Example 9: MC38 xenograft, 2′,3′-cGAMP administered firstly, RB0005 after 48 hours. It counts as in vivo, mouse. The following applies: 2′,3′-cGAMP 1 mg/kg i.t. Day 1, 3, 5; RB0005 1 mg/kg i.p. Day 3, 5, 7. As for the experimental part:
as §1, §2, §3
(§5) After successfully establishing a humanized PD-1 subcutaneous xenograft tumor model of colorectal carcinoma MC38 in mice, they were randomly grouped with 6-8 mice per group and administered once every two days, a total of 3 times.

Assay [5] relates to colorectal carcinoma MC38. The assay is described as follows: Example 5: humanized CD274 cell subcutaneous xenograft tumor model of colorectal carcinoma MC38, routes and dosage forms. It counts as in vivo, mouse. The following applies: every other day, 3 times. As for the experimental part: as §1, §2, §3
After successfully establishing a humanized CD274 cell subcutaneous xenograft tumor model of colorectal carcinoma MC38 in mice, they were randomly grouped with 6-8 mice per group and administered once every two days, a total of 3 times.

For assay [6], the system named is colorectal carcinoma MC38. In words: Example 1: subcutaneous xenograft tumor model of colorectal carcinoma MC38 in mice, RB0005 and 2′,3′-cGAMP. Type of assay: in vivo, mouse. Here is the method: C57/BL6JNifdc mouse, female, body weight of 17-22 g, aged 6-8 weeks, SPF grade, purchased from Beijing Vital River Laboratory Animal Technology Co., Ltd. [Experimental Animal Quality Certificate No.: SCXK (Beijing) 2016-0006].
as §1, §2, §3
After successfully establishing a subcutaneous xenograft tumor model of colorectal carcinoma MC38 in mice, it was randomly grouped with 6-8 mice per group. The mice were administered once every two days, with a total of three times followed by observation until 15 days.

Assay [7] concerns colorectal carcinoma MC38. The assay is described as follows: Example 3: xenograft tumor model of colorectal carcinoma MC38, RB0005 and different doses of 2′,3′-cGAMP. Particulars: single drug i.t.: RB0005 1 mg/kg; 2′,3′-cGAMP 1, 3.16, 10 mg/kg. Type of assay: in vivo, mouse. Here is the method:
as §1, §2
After successfully establishing a subcutaneous xenograft tumor model in mice, they were randomly grouped with 8 mice per group and administered once every two days.

Assay [8] relates to colorectal carcinoma MC38. In words: Example 7.2.3: MC38 subcutaneous xenograft, PD-L1 inhibitor Tecentriq or RB0005 and 2′,3′-cGAMP. The following applies: intratumor injection, 1 mg/kg each, every other day, 3 times. It counts as in vivo, mouse. Here is the method:
as §1, §2, §4

The next assay concerns lung carcinoma LLC-1. In words: Example 13: humanized PD-1 subcutaneous xenograft tumor model of lung carcinoma LLC-1. Type of assay: in vivo, mouse. The following applies: intratumor injection; RB0004 10 mg/kg, 2′,3′-cGAMP 0.1 mg/kg; every other day, 3 times. Here is the method:
as §1, §3
After successfully establishing a humanized PD-1 subcutaneous xenograft tumor model of lung carcinoma LLC-1 in mice, they were randomly grouped with 6-8 mice per group and administered once every two days, a total of 3 times.

Assay [9] concerns colorectal carcinoma MC38. In words: Example 6: humanized PD-1 subcutaneous xenograft tumor model of colorectal carcinoma MC38, RB0004 and 2′,3′-cGAMP single dosage form. It counts as in vivo, mouse. The following applies: intratumor injection; RB0004 10 mg/kg, 2′,3′-cGAMP 1 mg/kg; every other day, 3 times. Here is the method: as §1, §2, §3, §5

For `Nc1nc2c(ncn2[C@@H]2O[C@@H]3COP(=O)(O)O[C@H]4[C@@H](O)[C@H](n5cnc6c(N)ncnc65)O[C@@H]4COP(=O)(O)O[C@@H]2[C@@H]3O)c(=O)[nH]1` [2′,3′-cGAMP], the “survival rate at the endpoint of the experiment” value in the assay on breast carcinoma 4T1 is given as 66.7%. Also, the “Tumor Weight” value in the assay on breast carcinoma 4T1 (every other day, 3 times) stood at 0.63 g; in assay [1], 1.74 g; in assay [2], 0.98 g; in assay [4], 1.30 g; in [5] (intraperitoneal injection, 1 mg/kg (each)) it was 3.48 g; in assay [5] (intratumor injection, 1 mg/kg each) it was 1.84 g. For the same molecule, the “Tumor Weight” value stood at 0.9 g in assay [8] and 0.84 g in assay [9]. Also, the “inhibition of tumor growth” value in assay [3] is listed as “can inhibit the growth of tumor”; in assay [6] (i.t. 1 mg/kg, anatomical tumor weight vs negative control P<0.01, P<0.001), “can significantly inhibit the growth of tumor”; in assay [7], “can inhibit the growth of tumor”. Also, the “Day 7-Tumor volume (mm^3)” value with melanoma B16 is recorded as 578.8 mm^3. Further, the figures for the TGI % with melanoma B16, with melanoma B16 (listed as cGAMP) and in the assay with lung carcinoma LLC-1 were 59.0%, 59% and 47%, respectively. Further, the “survival rates of mice at the endpoint of the experiment” value in [6] (intratumor injection, 1 mg/kg each drug, every other day, 3 times, death = tumor volume >2000 mm^3) is 75%.

Take “Sintilimab: marketed PD-1 monoclonal antibody [reference compound]”: in assay [2], the “IRTW % (tumor weight inhibitory rate)” value was found to be 3.9% and the “Tumor Weight” value is listed as 1.47 g.

In the case of “Durvalumab: marketed PD-L1 inhibitor, anti PD-L1 antibody”, in assay [1], the “IRTW % (tumor weight inhibitory rate)” value was 27.7% and the “Tumor Weight” value was 2.42 g.

Turning to “Toripalimab: marketed PD-1 monoclonal antibody; G9 of Example 7.2.1, called TERRE in b443 [reference compound]”, in assay [2], the “IRTW % (tumor weight inhibitory rate)” value turned out to be 49.7% and the “Tumor Weight” value is given as 0.92 g.

For Tecentriq: marketed PD-L1 inhibitor, in assay [8], the “IRTW % (tumor weight inhibitory rate)” value stood at 62.4% and the “Tumor Weight” value is reported as 0.7 g.

Values taken from US20250282871A1, “PHARMACEUTICAL COMBINATION AND USE THEREOF” (TIANJIN LIPOGEN TECHNOLOGY CO., LTD, priority 2021, published 2025).
